Where a name gives a salt, the structure may show the parent alone.
Columns and labels:
[1] = Corrosion inhibition, circulating Memphis tap water with mild steel coupons; details: initial pH 7.5, 50° C., three days
Experimental: The test apparatus included a sump, a flow circuit, a circulating pump and a heater. […] The test fluid was Memphis tap water with the pH adjusted to 7.5 and the temperature was maintained at 50° C.±2° C.
The test fluid containing various concentrations of the compositions described herein was circulated continuously through the system containing the test coupons for a period of three days. At the end of this period, the coupons were removed, cleaned and weighed. The corrosion rates were calculated in milligrams per square decimeter per day (MDD).

[2] = Calcium Carbonate Antiprecipitation Tests; details: pH 9, 25° C., approx. 18 hours
Experimental: To evaluate the effect of the compounds of the present invention on the precipitation of calcium carbonate, measured volume of stock solution (prepared with demineralized water) of the phosphonic acids or their reaction product with epichlorohydrin were added to 100-ml portions of a calcium hydroxide solution (0.40 g Ca(OH)2 per liter). Then 100 ml of a sodium bicarbonate solution (0.50 g NaHCO3 per liter) was added to each portion of calcium hydroxide solution. The pH of each portion was adjusted to 9.00 (±0.05). The test solutions were then agitated on a rotary shaker for approximately 18 hours at a temperature of 25° C. At the end of this time insoluble material was removed by filtration with Whatman No. 4 filter paper and the calcium ion concentration in the filtrate was determined by titration with a standard ethylenediamine tetraacetic acid solution. The percent inhibition (Table 1) was calculated by comparing the test solution values with two controls included in every test series.

CN(C)CCCN(CP(=O)(O)O)CP(=O)(O)O [A, 3-(N,N-Dimethylamino)-N',N'-bis(phosphonomethyl)propylamine Hydrochloride]
Corrosion Inhibition, Percent ([1]; 50 parts per million): 99.4%
Corrosion rate, Average ([1]; 50 parts per million): 1.51 Miligrams per decimeter per day
Corrosion rate, Copper Couple ([1]; 50 parts per million): 3.01 Miligrams per decimeter per day
Corrosion rate, Sump 1 ([1]; 50 parts per million): 1.33 Miligrams per decimeter per day
Corrosion rate, Sump 2 ([1]; 50 parts per million): 0.18 Miligrams per decimeter per day
Corrosion Inhibition, Percent ([1]; 100 parts per million): 99.5%
Corrosion rate, Average ([1]; 100 parts per million): 1.24 Miligrams per decimeter per day
Corrosion rate, Copper Couple ([1]; 100 parts per million): 1.06 Miligrams per decimeter per day
Corrosion rate, Sump 1 ([1]; 100 parts per million): 0.89 Miligrams per decimeter per day
Corrosion rate, Sump 2 ([1]; 100 parts per million): 1.77 Miligrams per decimeter per day
Corrosion Inhibition, Percent ([1]; 200 parts per million): 99.2%
Corrosion rate, Average ([1]; 200 parts per million): 2.13 Miligrams per decimeter per day
Corrosion rate, Copper Couple ([1]; 200 parts per million): 3.90 Miligrams per decimeter per day
Corrosion rate, Sump 1 ([1]; 200 parts per million): 1.15 Miligrams per decimeter per day
Corrosion rate, Sump 2 ([1]; 200 parts per million): 1.33 Miligrams per decimeter per day
Inhibition of Calcium Carbonate Precipitation, percent inhibition ([2]; 1.0 parts per million): 0%
Inhibition of Calcium Carbonate Precipitation, percent inhibition ([2]; 2.0 parts per million): 0%
Inhibition of Calcium Carbonate Precipitation, percent inhibition ([2]; 3.0 parts per million): 4.2%
Inhibition of Calcium Carbonate Precipitation, percent inhibition ([2]; 4.0 parts per million): 41.6%
Inhibition of Calcium Carbonate Precipitation, percent inhibition ([2]; 5.0 parts per million): 50.9%
Inhibition of Calcium Carbonate Precipitation, percent inhibition ([2]; 6.0 parts per million): 54.5%
Inhibition of Calcium Carbonate Precipitation, percent inhibition ([2]; 7.0 parts per million): 64.1%
Inhibition of Calcium Carbonate Precipitation, percent inhibition ([2]; 8.0 parts per million): 60.6%
Inhibition of Calcium Carbonate Precipitation, percent inhibition ([2]; 9.0 parts per million): 69.4%
Inhibition of Calcium Carbonate Precipitation, percent inhibition ([2]; 10.0 parts per million): 67.5%

CN(C)CCN(CP(=O)(O)O)CP(=O)(O)O [F, 2-Dimethylamino-N',N'-bis(phosphonomethyl)ethylamine Hydrochloride]
Corrosion rate, Average ([1]; 50 parts per million): 35.46 Miligrams per decimeter per day
Corrosion rate, Copper Couple ([1]; 50 parts per million): 40.08 Miligrams per decimeter per day
Corrosion rate, Sump 1 ([1]; 50 parts per million): 12.94 Miligrams per decimeter per day
Corrosion rate, Sump 2 ([1]; 50 parts per million): 53.37 Miligrams per decimeter per day
Corrosion Inhibition, Percent ([1]; 100 parts per million): 99.4%
Corrosion rate, Average ([1]; 100 parts per million): 1.57 Miligrams per decimeter per day
Corrosion rate, Copper Couple ([1]; 100 parts per million): 1.95 Miligrams per decimeter per day
Corrosion rate, Sump 1 ([1]; 100 parts per million): 1.24 Miligrams per decimeter per day
Corrosion rate, Sump 2 ([1]; 100 parts per million): 1.51 Miligrams per decimeter per day
Corrosion Inhibition, Percent ([1]; 150 parts per million): 99.6%
Corrosion rate, Average ([1]; 150 parts per million): 1.06 Miligrams per decimeter per day
Corrosion rate, Copper Couple ([1]; 150 parts per million): 0.98 Miligrams per decimeter per day
Corrosion rate, Sump 1 ([1]; 150 parts per million): 1.15 Miligrams per decimeter per day
Corrosion rate, Sump 2 ([1]; 150 parts per million): 1.06 Miligrams per decimeter per day
Inhibition of Calcium Carbonate Precipitation, percent inhibition ([2]; 1.0 parts per million): 6.2%
Inhibition of Calcium Carbonate Precipitation, percent inhibition ([2]; 2.0 parts per million): 17.8%
Inhibition of Calcium Carbonate Precipitation, percent inhibition ([2]; 3.0 parts per million): 32.3%
Inhibition of Calcium Carbonate Precipitation, percent inhibition ([2]; 4.0 parts per million): 35.3%
Inhibition of Calcium Carbonate Precipitation, percent inhibition ([2]; 5.0 parts per million): 49.5%
Inhibition of Calcium Carbonate Precipitation, percent inhibition ([2]; 6.0 parts per million): 55.6%
Inhibition of Calcium Carbonate Precipitation, percent inhibition ([2]; 7.0 parts per million): 65.2%
Inhibition of Calcium Carbonate Precipitation, percent inhibition ([2]; 8.0 parts per million): 69.6%
Inhibition of Calcium Carbonate Precipitation, percent inhibition ([2]; 9.0 parts per million): 77.7%
Inhibition of Calcium Carbonate Precipitation, percent inhibition ([2]; 10.0 parts per million): 78.6%
